Data published in ChEMBL document CHEMBL1201862, “PubChem BioAssay data set” (2004).
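Step 1: Grow cells in 96-well plates. Step 2: Expose to compound for 48 hours at 5 concentrations. Step 3: Interpolate endpoints linearly; if unreached, use highest concentration. GI50 marks 50% less growth.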 The source made the active and inactive calls. Cut-off read from the data, not from the text of the source: active = GI50 up to about 1.1 µM and inactive = higher.

How the values were obtained:
Assay in all cases: NCI tumour cell line growth inhibition, 48 h
M19-MEL = system: M19-MEL
KM-20L2 = system: KM-20L2
XF498 = system: XF498
DMS-114 = system: DMS-114
HOP-18 = system: HOP-18
SNB-78 = system: SNB-78
BT-549 = system: BT-549
MDA-N = system: MDA-N

COc1cc(OC)c2c(c1)C(=O)C(CC(C)O)=CC2=O (centres undefined)
GI50 (M19-MEL): 3.42 µM (inactive)
GI50 (KM-20L2): 17.2 µM (inactive)
GI50 (XF498): 14 µM (inactive)
GI50 (DMS-114): 3.08 µM (inactive)
GI50 (HOP-18): 16.7 µM (inactive)
GI50 (SNB-78): 15.3 µM (inactive)

COc1cc2c3c(c1OC)C(=O)C(=O)C1=C3N(CCC1)CC2
GI50 (BT-549): 21.8 µM (inactive)

Cc1nc2c(n1CCN(C)C)C(=O)c1ccccc1C2=O
GI50 (M19-MEL): 2.02 µM (inactive)
GI50 (KM-20L2): 6.31 µM (inactive)
GI50 (XF498): 18.3 µM (inactive)
GI50 (SNB-78): 24.7 µM (inactive)

C(=N\C12CC3CC(CC(C3)C1)C2)/C1CCCCC1
GI50 (MDA-N): > 100 µM (inactive)
GI50 (BT-549): > 100 µM (inactive)

O=C1CSC2(CC(/C=C/c3ccccc3O)=NN2c2cccc(S(=O)(=O)O)c2)N1c1nc2ccccc2s1 (centres undefined)
GI50 (MDA-N): 38.3 µM (inactive)
GI50 (BT-549): 24.9 µM (inactive)

O=C1CC[C@@]2(O)[C@H]3Cc4ccc(-c5ccccc5)c5c4[C@@]2(CCN3CC2CC2)[C@H]1O5
GI50 (MDA-N): 16.4 µM (inactive)
GI50 (BT-549): 14.3 µM (inactive)

O=C1/C(=C/c2cccc([N+](=O)[O-])c2)Sc2scc(-c3ccc([N+](=O)[O-])cc3)[n+]21
GI50 (MDA-N): 24.5 µM (inactive)
GI50 (BT-549): 11.6 µM (inactive)

COC(=O)C1C(O)C(C)C(=O)C(C)/C=C\C=C(C)C(=O)Nc2c(C)c(OC(C)=O)c3c(c2O)C(=O)C(C)=C2OCOC(=C23)C(C)=CC(C)(O)C(O)C(C)C1O (centres undefined)
GI50 (BT-549): 42 µM (inactive)

O=C1c2nn(-c3ccccc3)nc2C(c2ccccc2)N1c1ccccc1 (centres undefined)
GI50 (M19-MEL): > 100 µM (inactive)
GI50 (KM-20L2): > 100 µM (inactive)
GI50 (XF498): > 100 µM (inactive)
GI50 (DMS-114): > 100 µM (inactive)
GI50 (HOP-18): > 100 µM (inactive)
GI50 (SNB-78): 28.1 µM (inactive)

O=C1/C(=C/c2ccc(O)cc2)CCC1CNc1ccccc1 (centres undefined)
GI50 (BT-549): 14.5 µM (inactive)

CC(=O)OC1C[C@@H](C)C2(C[C@H](O)c3ccoc3)C(=O)OC[C@]13C2CCC(O)C31CO1 (some centres undefined)
GI50 (MDA-N): > 100 µM (inactive)
GI50 (BT-549): > 100 µM (inactive)

CC1CC(=O)N(N(C)C)C(C#N)(C#N)C1(C#N)C#N (centres undefined)
GI50 (MDA-N): 18.1 µM (inactive)
GI50 (BT-549): 15.7 µM (inactive)

CC1CCC(C(C)(C)c2ccccc2)C(=O)C1 (centres undefined)
GI50 (M19-MEL): > 100 µM (inactive)
GI50 (KM-20L2): > 100 µM (inactive)
GI50 (XF498): > 100 µM (inactive)
GI50 (DMS-114): 75.7 µM (inactive)
GI50 (HOP-18): 24.8 µM (inactive)
GI50 (SNB-78): > 100 µM (inactive)

O=C(/C=C/c1ccccc1)OCC1=C[C@@H](O)[C@@H]2C=CO[C@@H](OC3OC(CO)C(O)C(O)C3O)[C@H]12 (some centres undefined)
GI50 (MDA-N): > 100 µM (inactive)
GI50 (BT-549): > 100 µM (inactive)

Cc1[nH]c2ccccc2c1C1CC(=O)NC1=O (centres undefined)
GI50 (M19-MEL): > 100 µM (inactive)
GI50 (KM-20L2): > 100 µM (inactive)
GI50 (DMS-114): > 100 µM (inactive)
GI50 (SNB-78): > 100 µM (inactive)

CC(C)(C)[Si](C)(C)OCC1OC(n2ccc(=O)[nH]c2=O)C(O[Si](C)(C)C(C)(C)C)[C@@]12O[C@H]2C(N)=O (some centres undefined)
GI50 (MDA-N): 5.37 µM (inactive)
GI50 (BT-549): 18.5 µM (inactive)

C/C(=N\Nc1nc2ccccc2[nH]1)c1ncccn1
GI50 (MDA-N): 0.388 µM (active)

O=C(O)Cc1ccc(Nc2nc3cc(C(F)(F)F)ccc3nc2C(=O)O)cc1
GI50 (MDA-N): > 100 µM (inactive)
GI50 (BT-549): > 100 µM (inactive)

C/C(=C\c1ccccc1)C(O)S(=O)(=O)O (centres undefined)
GI50 (M19-MEL): > 100 µM (inactive)
GI50 (KM-20L2): > 100 µM (inactive)
GI50 (DMS-114): > 100 µM (inactive)
GI50 (HOP-18): > 100 µM (inactive)

CC(=O)OC1CC[C@@]2(C)C(C1)CC(OC(C)=O)[C@@H]1C2CC(OC(C)=O)[C@]2(C)C(C(C)CC=C(c3ccc(Cl)cc3)c3ccc(Cl)cc3)CCC12 (some centres undefined)
GI50 (MDA-N): > 100 µM (inactive)

CC1=C(N2CC2)C(=O)c2nc3n(c2C1=O)CCC3OC(=O)CCl (centres undefined)
GI50 (M19-MEL): 0.0817 µM (active)
GI50 (KM-20L2): 0.131 µM (active)
GI50 (XF498): 0.0301 µM (active)
GI50 (DMS-114): 0.171 µM (active)
GI50 (MDA-N): 0.0222 µM (active)
GI50 (HOP-18): 0.043 µM (active)
GI50 (BT-549): 0.0152 µM (active)
GI50 (SNB-78): 0.193 µM (active)

COc1ccc2c(c1O)-c1c(OC)c(OC)cc3c1[C@H](C2)[N+](C)(C)CC3
GI50 (MDA-N): > 100 µM (inactive)
GI50 (BT-549): > 100 µM (inactive)

Nc1nc(O)c(Br)c(-c2cccc([N+](=O)[O-])c2)n1
GI50 (BT-549): 38.6 µM (inactive)

CN(C)Cc1cc(C(=O)/C=C/c2c(Cl)cccc2Cl)cc(CN(C)C)c1O
GI50 (MDA-N): 3.67 µM (inactive)

CCSc1nc(-c2cccs2)nc2ccc(I)cc12
GI50 (MDA-N): > 100 µM (inactive)
GI50 (BT-549): > 100 µM (inactive)

CC(=O)c1csc2c1C(=O)c1ccccc1C2=O
GI50 (MDA-N): 1.22 µM (inactive)
GI50 (BT-549): 1.62 µM (inactive)

N[C@H](C(=O)O)[C@@H]1CC(Cl)=NO1 [ACIVICIN]
GI50 (KM-20L2): 1.36 µM (inactive)
GI50 (XF498): 23.8 µM (inactive)
GI50 (DMS-114): 5.53 µM (inactive)
GI50 (MDA-N): 4.06 µM (inactive)
GI50 (HOP-18): 37.9 µM (inactive)
GI50 (BT-549): 43 µM (inactive)
GI50 (SNB-78): 4.25 µM (inactive)

CO[C@H]1Nc2c(ccc(C)c2O)C(=O)N2C=C(/C=C/C(N)=O)C[C@@H]12 [ANTHRAMYCIN METHYL ETHER]
GI50 (M19-MEL): 0.0269 µM (active)
GI50 (KM-20L2): 0.184 µM (active)
GI50 (XF498): < 0.01 µM (active)
GI50 (DMS-114): 0.0213 µM (active)
GI50 (MDA-N): 0.0133 µM (active)
GI50 (HOP-18): 0.444 µM (active)
GI50 (BT-549): 0.0143 µM (active)
GI50 (SNB-78): 0.0258 µM (active)
